Test results: patent publication US20080194585A1, “Fungicidal Pyrazine Derivatives” (priority 2005, published 2008)
Marks after values point to notes of the source that are not given here.

Tests used:
[1] = test system: Plasmopara viticola; experiment: Test D: grape downy mildew, spray after inoculation of grape seedlings; format: in vivo
Excerpt: Upon removal, disease ratings were made. […] A dash (-) indicates no test results.

[2] = test system: Phytophthora infestans; experiment: whole plant or invertebrate; format: in vivo
[3] = test system: Septoria tritici; experiment: Test J: wheat leaf blotch, preventive spray on wheat seedlings; format: in vivo; details: 40 ppm (*)
Excerpt: A dash (-) indicates no test results.

[4] = test system: fusarium graminearium; experiment: Test I: wheat head scab, preventive spray on wheat seedlings
Description: (the causal agent of wheat head scab) and incubated in a saturated atmosphere at 20° C. for 72 h, and then moved to a growth chamber at 22° C. for 5 days, after which disease ratings were made.

[5] = test system: Puccinia recondita f. sp. tritici; experiment: Test K: wheat leaf rust, preventive spray on wheat seedlings; details: 40 ppm (*)
[6] = test system: Botrytis cinerea; experiment: Test E: tomato botrytis, preventive spray on tomato seedlings; details: 40 ppm (*)
[7] = test system: Septoria nodorum; experiment: Test H: wheat glum blotch, preventive spray on wheat seedlings; details: 40 ppm (*)
Description: (the causal agent of wheat glum blotch) and incubated in a saturated atmosphere at 20° C. for 48 h, and then moved to a growth chamber at 22° C. for 5 days, after which disease ratings were made.

[8] = test system: Erysiphe graminis f. sp. tritici; experiment: Test L: wheat powdery mildew, preventive spray on wheat seedlings; details: 40 ppm (*)
[9] = test system: Pythium aphanidermatum; experiment: Test A: bluegrass pythium blight, preventive spray on bluegrass seedlings
[10] = test system: Rhizoctonia oryzae; experiment: Test G: turf brown patch, preventive spray on creeping bent grass seedlings; details: 40 ppm (*)
Description: (the causal agent of turf brown patch) and incubated in a saturated atmosphere at 27° C. for 24 h, and then moved to a growth chamber at 27° C. for 5 days, after which disease ratings were made.

[11] = test system: Colletotrichum orbiculare; experiment: Test B: cucumber Colletotrichum anthracnose, preventive spray on cucumber seedlings

SMILES	Test D disease control rating ([1]; 200 ppm)	Test F disease control rating ([2]; 200 ppm)	Test J disease control rating [3]	Test I disease control rating ([4]; 200 ppm)	Test K disease control rating [5]	Test E disease control rating [6]	Test H disease control rating [7]	Test L disease control rating [8]	Test A disease control rating ([9]; 200 ppm)	Test G disease control rating [10]	Test B disease control rating ([11]; 40 ppm (*))	Test D disease control rating ([1]; 40 ppm (*))	Test F disease control rating ([2]; 40 ppm (*))	Test I disease control rating ([4]; 40 ppm (*))	Test A disease control rating ([9]; 40 ppm (*))	Test B disease control rating ([11]; 200 ppm)
CC(C)Cn1c(-c2ccc(Cl)o2)c(Cl)nc(-n2cncn2)c1=O [compound 156]	0%	0%	14* %	0%	0* %	0* %	0* %	0* %	0%	0* %	0* %					
CC(C)Cn1c(-c2ccc(Cl)s2)c(Cl)nc(-n2cncn2)c1=O [compound 157]	0%	0%	47* %	49%	0* %	0* %	0* %	0* %	0%	0* %	0* %					
CC(C)Cn1c(-c2ccoc2)c(Cl)nc(-n2cncn2)c1=O [compound 158]	0%	0%	15* %	0%	0* %	0* %	0* %	0* %	0%	0* %	0* %					
CC(C)Cn1c(-c2ccsc2)c(Cl)nc(-n2cncn2)c1=O [compound 159]	0%	47%	69* %	0%	0* %	0* %	0* %	0* %	0%	0* %	0* %					
N#Cc1nc(Cl)c(-c2c(F)cccc2F)n(-c2ccccc2)c1=O [compound 163]			3* %		0* %	0* %	0* %	0* %		0* %	0* %	0* %	0* %	0* %	0* %	
CCC(C)Cn1c(-c2ccc(F)cc2Cl)c(Cl)nc(-n2cncn2)c1=O (stereo not shown) [compound 165]			100* %		100* %	100* %	100* %	100* %		16* %	52* %	31* %	0* %	0* %	0* %	
CCC(C)Cn1c(-c2ccc(F)cc2Cl)c(Cl)nc(-n2cc(Cl)cn2)c1=O (stereo not shown) [compound 166]			100* %		86* %	100* %	0* %	0* %		26* %	17* %	0* %	0* %	0* %	0* %	
CCC(C)Cn1c(-c2ccc(F)cc2Cl)c(Cl)nc(-n2ccc(C(F)(F)F)n2)c1=O (stereo not shown) [compound 167]			93* %		80* %	0* %	0* %	0* %		0* %	0* %	0* %	0* %	0* %	0* %	
CCC(C)Cn1c(-c2ccc(F)cc2Cl)c(Cl)nc(-n2nc(C)cc2C)c1=O (stereo not shown) [compound 168]			36* %		0* %	0* %	0* %	0* %		0* %	0* %	0* %	0* %	0* %	0* %	
CCC(C)Cn1c(-c2ccc(F)cc2Cl)c(Cl)nc(-n2cc(C)cn2)c1=O (stereo not shown) [compound 169]			100* %		92* %	99* %	97* %	75* %		0* %	98* %	0* %	0* %	0* %	0* %	
CC(C)Cn1c(-c2c(F)c(F)c(F)c(F)c2F)c(Cl)nc(-n2cccn2)c1=O [compound 171]			52* %		96* %	100* %	82* %	99* %		95* %		0* %	0* %	0* %	0* %	0%
CC(C)Cn1c(-c2c(F)cccc2F)c(Cl)nc(-c2cccnc2)c1=O [compound 178]			5* %		0* %	0* %	0* %	0* %		0* %	0* %	0* %	0* %	0* %	0* %	
CCCC(C)n1c(-c2c(F)cccc2F)c(Cl)nc(-n2cccn2)c1=O (stereo not shown) [compound 180]			98* %		100* %	99* %	99* %	95* %		94* %	66* %	0* %	0* %	0* %	0* %	
CCC(CC)n1c(-c2c(F)cccc2F)c(Cl)nc(-n2cccn2)c1=O [compound 181]			100* %		100* %	99* %	99* %	98* %		100* %	51* %	0* %	0* %	0* %	0* %	
